{"source": "patent US9320271B2", "about": "“Microbial composition” (Rohm and Haas Company, priority 2011, dated 2016)", "key": {"[1]": {"tested_on": "Escherichia coli (E. coli—ATCC #10536)", "assay": "Automated assessment of efficacy in surfactant base (2.85% sodium cocoyl glycinate and 1.85% sodium lauroamphoacetate, pH 10.0), 15 seconds exposure", "type": "cell-based", "conditions": "for No. of replicates showing growth (out of 4) / Δ OD 450 nm = OD450 (time = 16 hours) − OD450 (time zero), Mean / Δ OD 590 nm OD590 (time = 16 hours) − OD590 (time zero), Mean: alone, model surfactant solution", "protocol": "Test Methodology for Automated Assessment of Efficacy in Surfactant Base Microbiocidal Activity of Actives as Per the Invention in a Model Surfactant Medium Test Methodology for Automated Assessment of Efficacy in Surfactant Base In these examples, the efficacy of combinations of actives were tested in a surfactant cleansing formulation comprising 2.85% sodium cocoyl glycinate and 1.85% sodium lauroamphoacetate. This corresponds to a 50% in use dilution with water of a neat formulation containing 5.7% cocoyl glycinate and […] % sodium, lauroamphoacetate during hand washing. Solutions were prepared such that the concentrations of the surfactant components and test actives were 1.1× the final desired concentration in order to allow for dilution with the bacterial inoculum in the test. The solutions were manually adjusted to pH 10.0 by dropwise addition of sodium hydroxide solution, as measured with a pH meter at ambient temperature. The efficacy of the combinations of the present invention was determined against Escherichia coli (E. coli—ATCC #10536), at a concentration of approximately 1×10^8 bacteria per mL. Tests were conducted using standard microtiter plate assays using an automated liquid handling system. 270 μl of the surfactant test solution was pipetted into each well of the microtitre plate and 30 μl of the bacterial suspension was then added. Alter exactly 15 seconds of bacterial exposure, a 30 μl volume of bacterial cells was withdrawn and transferred to 270 μl of D/E quench solution. After 5 minutes in the D/E quench, the optical density (OD) was measured for each plate in turn at two specific wavelengths (450 nm and 590 nm). These provide a dual check of antimicrobial activity, as the OD450 reading is specific for the yellow colour of D/E quench when bacterial growth is observed, whereas OD590 is specific for the initial purple colour of the D/E quench which is retained if no bacterial growth is observed. After the time zero OD measurements, plates were then incubated at 37° C. overnight (16 hours) before repeating the OD measurements. Delta OD values were calculated by subtracting […]. Bacterial growth is observed as an increase in OD450 and a decrease in ΔOD590. To identify antibacterially efficacious systems (those preventing appreciable bacterial growth after incubation), the following threshold changes in OD readings have been adopted: if (1). OD450 increases by less than 0.2 absorbance unit on incubation and (2). OD590 decreases by less than 0.35 unit on incubation. Conversely, where OD450 increases by more than 0.2 AU and OD590 decreases by more than 0.35 unit after incubation, corresponding to a colour shift from purple to yellow, the test system allows bacterial growth and is not deemed efficacious. Four replicate measurements in the same plate have been made for each test system. The number of replicate wells showing either bacterial growth or no growth is also readily assessed by eye by following the colour change. Dose responses for individual components and binary mixtures of actives at a fixed concentration ratio were generated by sequential dilution of liquors with further surfactant solution to obtain a series of endpoints. […] In some selected cases, the combinations were also tested at the weight ratio 1:1."}, "[2]": {"tested_on": "Staphylococcus aureus (10788 strain)", "assay": "15 second contact kill test / antimicrobial efficacy of actives against S. aureus in water", "type": "cell-based", "conditions": "0.1% 3 isopropyl 6 methyl catechol (IPMC) alone", "protocol": "Selected materials were also tested against a representative Grant positive Staphylococcus aureus. An overnight culture of Staphylococcus aureus (10788 strain) was inoculated onto a […] Soy Agar (TSA) plate and grown for ca. 18 hrs at 37° C. The culture S. aureus was washed from the plate using sterile saline (0.85% NaCl) solution and a sterile spreader and suspended in 50 ml saline. This suspension was separated into equal volumes and centrifuged at 4000 rpm for 15 minutes. […] Here, OD620 indicates the absorbance of a sample in a cuvette of 1.0 cm path length at a wavelength of 620 nm. This bacterial stock was used for assaying against antimicrobial actives (in triplicate). The following assay describes the testing of 8 materials using 6 dilutions across half of a 96-well micro titre plate (MTP). Using this approach it is possible to assay 16 actives (without replicates) with one full dilution plate, replicating this set up in two halves of the plate columns, 1-6 and 7-12. 1M solutions of the test actives were prepared in dimethylsulphoxide (DMSO). […] Aliquots (270 μl) of the materials at 1.11 times the final concentration were dispensed into the wells of the MTP along one column (A1-H1). This MTP was labelled as the “Screening plate”. In another MTP, labelled as the “Dilution plate”, […] of D/E neutralising solution from DIFCO Composition was added to column 1. The composition of the neutralising solution was as follows: pancreatic digest of casein, 5.0 g/L; […] Dextrose, 10 g/L, sodium thioglycollate, 1.0 g/L, sodium thiosulphate, 6.0 g/L; sodium bisulphite, 2.5 g/L; […] […] From the colony number in this segment, NMBS is calculated by the formula: NMBS=log {Ncol·10^DF·100/3} Here, Ncol is the colony count, and DF is the dilution factor taken from the MTP-well corresponding to the TSA plate segment (i.e. DF may range from 1 for the quench, to 6 for the highest dilution). […] Here, OD620 indicates the absorbance of a sample in a cuvette of 1.0 cm path length at a wavelength, of 620 nm. […]"}}, "data": [{"smiles": "Cc1ccc(C(C)C)c(O)c1O", "note": "[3-isopropyl-6-methylbenzene-1,2-diol]", "values": [{"measurement": "No. of replicates showing growth (out of 4)", "setting": "[1]; 0.175% w/v", "value": 4}, {"measurement": "Δ OD 450 nm = OD450 (time = 16 hours) − OD450 (time zero), Mean", "setting": "[1]; 0.175% w/v", "value": "−0.51"}, {"measurement": "Δ OD 590 nm OD590 (time = 16 hours) − OD590 (time zero), Mean", "setting": "[1]; 0.175% w/v", "value": 0.53}, {"measurement": "No. of replicates showing growth (out of 4)", "setting": "[1]; 0.2% w/v", "value": 4}, {"measurement": "Δ OD 450 nm = OD450 (time = 16 hours) − OD450 (time zero), Mean", "setting": "[1]; 0.2% w/v", "value": "−0.53"}, {"measurement": "Δ OD 590 nm OD590 (time = 16 hours) − OD590 (time zero), Mean", "setting": "[1]; 0.2% w/v", "value": 0.53}, {"measurement": "No. of replicates showing growth (out of 4)", "setting": "[1]; […] w/v", "value": 4}, {"measurement": "Δ OD 450 nm = OD450 (time = 16 hours) − OD450 (time zero), Mean", "setting": "[1]; […] w/v", "value": "−0.50"}, {"measurement": "Δ OD 590 nm OD590 (time = 16 hours) − OD590 (time zero), Mean", "setting": "[1]; […] w/v", "value": 0.56}, {"measurement": "MBC (minimum biocidal concentration)", "setting": "[1]; in 2.85% sodium cocoyl glycinate + 1.85% sodium lauroamphoacetate solution at pH 10, E. coli", "value": ">0.2", "unit": "% w/v"}, {"measurement": "S. aureus 6538 Log Reduction", "setting": "[2]", "value": "−0.07"}]}]}
